Measured values as given in paper PMC8831520, “Small molecule SWELL1 complex induction improves glycemic control and nonalcoholic fatty liver disease in murine Type 2 diabetes” (Nature Communications, 2022).
Where two headings read alike, the source gives them in different places.

How the values were obtained:
[1] = biological target: T1, ICl,SWELL (SWELL1-LRRC8 channel) in HEK-293 cells (Homo sapiens, UniProt Q8IWT6); assay: ICl,SWELL inhibition after hypotonic activation (open channel), patch-clamp; type: cell-based; settings: for inhibition of channels first opened by hypotonic activation: 1 μM
T1 construct: applied when the endogenous HEK-293 cell ICl,SWELL current density reached 30 pA/pF; endogenous in cells; host or cells: HEK-293 (ATCC, #CRL-1573)
T1 sequence (Q8IWT6 1-810): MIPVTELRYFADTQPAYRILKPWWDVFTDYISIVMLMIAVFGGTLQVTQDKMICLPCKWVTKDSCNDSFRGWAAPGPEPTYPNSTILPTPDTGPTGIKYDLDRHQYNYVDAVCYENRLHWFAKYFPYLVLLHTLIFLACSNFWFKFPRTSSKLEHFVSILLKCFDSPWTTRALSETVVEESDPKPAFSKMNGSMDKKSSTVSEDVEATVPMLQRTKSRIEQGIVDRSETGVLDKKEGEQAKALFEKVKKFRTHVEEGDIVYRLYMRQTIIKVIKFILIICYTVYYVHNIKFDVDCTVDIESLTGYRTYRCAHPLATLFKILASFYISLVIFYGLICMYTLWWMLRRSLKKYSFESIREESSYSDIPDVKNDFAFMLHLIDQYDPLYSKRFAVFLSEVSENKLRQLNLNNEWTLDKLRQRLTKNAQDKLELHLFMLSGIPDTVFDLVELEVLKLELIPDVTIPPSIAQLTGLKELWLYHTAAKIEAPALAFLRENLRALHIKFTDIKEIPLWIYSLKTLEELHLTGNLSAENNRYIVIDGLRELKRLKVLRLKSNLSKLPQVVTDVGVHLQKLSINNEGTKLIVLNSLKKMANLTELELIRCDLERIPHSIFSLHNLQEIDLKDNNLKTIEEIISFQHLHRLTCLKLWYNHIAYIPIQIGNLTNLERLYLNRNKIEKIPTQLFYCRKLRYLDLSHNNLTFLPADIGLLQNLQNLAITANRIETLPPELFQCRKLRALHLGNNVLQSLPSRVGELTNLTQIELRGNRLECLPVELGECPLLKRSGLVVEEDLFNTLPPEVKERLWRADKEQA
Procedure: Patch-clamp recordings of β-cells, 3T3-F442A adipocytes, and mature human adipocytes were performed as described previously[24],[28]. Briefly, all patch-clamp experiments were conducted at room temperature using either an Axopatch 200B amplifier or a MultiClamp 700B amplifier paired to a Digidata 1550 digitizer. Data were acquired using pClamp 10.4 software. For hypotonic swelling, extracellular solution consisted of the following (in mM): 90 NaCl, 2 CsCl, 1 MgCl2, 1 CaCl2, 10 HEPES, 10 mannitol, pH 7.4 with NaOH (210 mOsm/kg). The isotonic extracellular solution consisted of the same composition above but with 110 mM instead of 10 mM mannitol (300 mOsm/kg). The swell-activated current was elicited by perfusing cells with a hypotonic solution (210 mOsm/kg). […] For perforated-patch recordings in isolated human adipocytes, the intracellular solution was as above but without ATP and GTP, and contained 360 μg/ml Amphotericin B (Sigma). The holding potential was 0 mV. Voltage ramps from −100 to +100 mV (at 0.4 mV/ms) were applied every 4 s. The sampling interval was 100 μs and filtered at 10 kHz. For perforated-patch recordings, cells with a membrane resistance below 1 GΩ or access resistance above 20 MΩ were discarded. […]

[2] = tested on: T2, SWELL1-LRRC8 channels in the closed state, HEK-293 cells; assay: ICl,SWELL inhibition on preincubation before hypotonic activation (closed channel), patch-clamp; type: cell-based; settings: 1 μM applied 30 min prior to hypotonic activation, vs vehicle or Inactive compounds
T2 construct: applied when the endogenous HEK-293 cell ICl,SWELL current density reached 30 pA/pF; endogenous in cells; host or cells: HEK-293 (ATCC, #CRL-1573)

[3] = tested on: endogenous SWELL1 in 3T3-F442A preadipocytes; assay: SWELL1 plasma membrane localization, immunofluorescence; type: cell-based, murine; settings: 1 or 10 µM, 48 h, vs vehicle or Inactive 1
Procedure: 3T3-F442A preadipocytes (WT, KO) and differentiated adipocytes without or with SWELL1 overexpression (WT + SWELL1 O/E, KO + SWELL1 O/E) were prepared as described in the Cell culture section on collagen-coated coverslips. […] The cells were fixed in ice-cold acetone for 15 min at −20 °C and then washed four times with 1XPBS. […] Either anti-SWELL1 (1:400) or anti-Flag (1:1500, Sigma #F3165) antibody was added to the cells and incubated overnight at 4 °C. The cells were then washed three times (1XPBS) prior to and after the addition of 1:1000 Alexa Fluor 488/568 secondary antibody (anti-rabbit, #A11034 or anti-mouse, #A11004) for 1 h at RT. Cells were counterstained with nuclear TO-PRO-3 (Life Technologies, #T3605) or DAPI (Invitrogen, #D1306) staining (1 µM) for 20 min followed by three washes with 1XPBS. Coverslips were further mounted on slides with ProLong Diamond anti-fading media. All images were captured using Zeiss LSM700/LSM510 confocal microscope with 63X objective (NA 1.4). SWELL1 membrane localization was quantified by stacking all the z-images and converting it into a binary image where the cytoplasmic intensity per unit area was subtracted from the total cell intensity per unit area using ImageJ software.

[4] = tested on: T3, SWELL1 protein in 3T3-F442A adipocytes; assay: SWELL1 protein under glucolipotoxic stress (palmitate + glucose); type: cell-based, murine; settings: 10 µM 96 h pretreatment, then 1 mM palmitate + 25 mM glucose 16 h
T3 construct: host or cells: 3T3-F442A preadipocytes and differentiated adipocytes (wild type)
Procedure: In the case of 3T3-F442A adipocytes, the WT and KO cells were treated with either vehicle (DMSO), 1 or 10 µM SN-40X (after 7–11 days of differentiation) for 96 h and then stimulated with 0 and 10 nM insulin/serum-containing media with vehicle (DMSO) or SN-40X for 15 min for SWELL1 detection. […] To simulate glucolipotoxicity, 8 mM sodium palmitate was dissolved in 18.4% fatty-acid free BSA at 37 °C in DMEM medium with 25 mM glucose to obtain a conjugation ratio of 1:3 palmitate:BSA[80].

[5] = tested on: pancreatic islets of T2D mice; assay: Insulin secretion of treated T2D mice (serum insulin, islet perifusion GSIS); type: in vivo, mouse
Procedure: Mice were fasted for 6 h prior to glucose tolerance tests (GTT). Baseline glucose levels at 0 min timepoint (fasting glucose, FG) were measured from a blood sample collected from tail snipping using glucometer (Bayer Healthcare LLC). Either 1 or 0.75 g D-Glucose/kg body weight were injected (i.p.) for lean or HFD mice, respectively and glucose levels were measured at 5 or 7, 15, 30, 60, 90, and 120 min timepoints after injection. For insulin tolerance tests (ITTs), the mice were fasted for 4 h. Similar to GTTs, the baseline blood glucose levels were measured at 0 min timepoint and 15, 30, 60, 90, and 120 min timepoints post-injection (i.p.) of insulin (HumulinR, 1 U/kg bodyweight for lean mice or 1.25 U/kg body weight for HFD mice). […] The collected plasma was then measured for insulin content by using Ultra-Sensitive Mouse Insulin ELISA Kit (Crystal Chem, #90080). All mouse studies were performed in a blinded fashion.

[6] = HEK-293 cells, hypotonic (210 mOsm) stimulation, outward current, compound applied at 30 pA/pF, read-out: IC50 for ICl,SWELL inhibition

| Compound | IC50 [1, 6] [µM] | IC50 [1] [µM] | inhibition of channels first opened by hypotonic activation [1] | concentrations required to effectively inhibit channels when first opened by hypotonic activation ([1]; HEK-293 cells) [µM] | subsequent hypotonic activation of ICl,SWELL [2] | plasma membrane (PM) localization of endogenous SWELL1 [3] | prevention of palmitate/glucose-induced reduction of SWELL1 protein [4] | impaired GSIS (serum insulin, islet perifusion) ([5]; HFD mice, 21 weeks HFD) | ICl,SWELL inhibitory activity compared to SN-401 ([1]; HEK-293 cells) | insulin secretion in perifusion GSIS ([5]; islets of HFD-T2D mice, compared to Inactive 1) |
| --- | --- | --- | --- | --- | --- | --- | --- | --- | --- | --- |
| CCCCC1(C2CCCC2)Cc2cc(OCC(=O)O)c(Cl)c(Cl)c2C1=O (stereo not shown) [Inactive 1, 2-((2-butyl-6,7-dichloro-2-cyclopentyl-1-oxo-2,3-dihydro-1H-inden-5-yl)oxy)acetic acid] | 35.5 | – | – | – | – | – | – | – | – | – |
| CCCCC1(C2CCCC2)Cc2cc(OCCCC(=O)O)c(Cl)c(Cl)c2C1=O (stereo not shown) [SN-401, 4-((2-butyl-6,7-dichloro-2-cyclopentyl-1-oxo-2,3-dihydro-1H-inden-5-yl)oxy)butanoic acid] | – | 3.9 | relatively ineffective | 6 to 10 | markedly suppressed and delayed | enhanced | entirely prevented | significantly improved | – | – |
| CCCCC1(C2CCCC2)Cc2cc(OCCCCCC(=O)O)c(Cl)c(Cl)c2C1=O (stereo not shown) [SN-406, 6-((2-butyl-6,7-dichloro-2-cyclopentyl-1-oxo-2,3-dihydro-1H-inden-5-yl)oxy)hexanoic acid] | 3.1 | – | relatively ineffective | 6 to 10 | markedly suppressed and delayed | enhanced | entirely prevented | – | increased ICl,SWELL inhibitory activity | significantly augmented |
